Assay results published in US7732493B2, “2-substituted D-homo-estra-1,3,5(10)-trienes as inhibitors of 17β-hydroxy steroid dehydrogenase type 1” (Bayer Schering Pharma Aktiengesellschaft, priority 2004, dated 2010).
pIC50: −log10 of the molar value.

Each compound was assayed against T1, human 17β-hydroxy steroid dehydrogenase type 1 (17β-HSD1) (Homo sapiens, UniProt P14061) (assay: Inhibition of the activity of human 17β-hydroxy steroid dehydrogenase type 1 (3H-labeled substrate conversion, HPLC)). Conditions: human enzyme over-expressed in E. coli, bacterial suspension, 37° C., double determination; read-out: 17βHSD1 IC50.
T1 construct: made in house; host or cells: E. coli
T1 sequence (P14061 1-328): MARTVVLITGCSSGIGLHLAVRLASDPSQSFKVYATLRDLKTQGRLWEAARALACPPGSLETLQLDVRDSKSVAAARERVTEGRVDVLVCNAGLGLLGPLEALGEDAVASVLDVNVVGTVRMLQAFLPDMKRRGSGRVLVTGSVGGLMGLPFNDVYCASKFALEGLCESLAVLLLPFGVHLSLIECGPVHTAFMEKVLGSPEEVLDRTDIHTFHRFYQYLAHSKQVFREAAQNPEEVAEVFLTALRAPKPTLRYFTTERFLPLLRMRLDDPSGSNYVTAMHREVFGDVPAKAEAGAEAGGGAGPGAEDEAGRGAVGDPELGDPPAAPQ
Assay type: biochemical
Excerpt: The test process is well described in the literature [Adamski, J., Sierralta, W. D., Jungblut, P. W., Acta Endocrinol (Copenh.) 121(2) (1989), 161-7] and is depicted below.
Human 17β-hydroxy steroid dehydrogenases (17β-HSDs) are over-expressed in E. coli bacteria as His-Tag proteins or as GST-fusion proteins. The suspensions of the bacterial pellets in isotonic common salt solution are used for the determination of enzyme activities of the 17β-HSDs or for the study of their influence by potential inhibitors (estrogen derivatives).
The measurements are made in double determination and, if necessary, at various concentrations of potential inhibitors (e.g., in determining the IC50 values). In addition to the target enzyme 17β-HSD1, other steroid-metabolizing enzymes are included in the test to study cross reactivities of estrogen derivatives.
The incubation of the samples is carried out at 37° C. in a water bath while being shaken, such that in the control (without substances to be tested), a conversion of about 30% is achieved.
The separation of radiolabeled substrate and product is then carried out, after extraction with 1 ml of reversed phase-(RP-18)-cartridges, by means of HPLC on an RP18 column with acetonitrile:water 1:1 (v/v) as a mobile phase. The radioactivity is detected with the aid of a flow-scintillation counter.
The evaluation of the substrate conversion with and without substances to be tested is performed by the integration of the substrate and product peaks. The conversion of the control is normalized to 100% conversion.

Compound | pIC50
2-Iodo-17a-oxo-17a-homoestra-1,3,5(10)-trien-3-ol [Example 4] | 7.28
2-Bromo-17a-oxo-17a-homoestra-1,3,5(10)-trien-3-ol [Example 3] | 7.28
COc1cc2c(cc1O)CC[C@@H]1[C@@H]2CC[C@]2(C)C(=O)CCC[C@@H]12 [Example 1, 2-Methoxy-17a-oxo-17a-homoestra-1,3,5(10)-trien-3-ol] | 7.07
C=CCc1cc2c(cc1O)CC[C@@H]1[C@@H]2CC[C@]2(C)C(=O)CCC[C@@H]12 [Example 7, 2-Allyl-17a-oxo-17a-homoestra-1,3,5(10)-trien-3-ol] | 7.62
